Key:
Type in all cases: cell-based, murine
[1] = target: EGFR mutant L858R Ba/F3 cells (Homo sapiens, UniProt P00533, L858R, cells depend on it); assay: Ba/F3 cell proliferation (Cell Titer Glo), EGFR L858R; conditions: 72 hours exposure, read-out: L858R BaF3 (μM), inhibitory activity against EGFR mutants
How it was run: (§1)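 Ba/F3 cells stably expressing retrovirally transduced EGFR L858R, L858R/C797S or L858R/C775S, puromycin-selected. Compound exposure 72 hours in triplicate; viability by Cell Titer Glo ATP luminescence.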

[2] = target: EGFR L858R/C797S Ba/F3 cells (Homo sapiens, UniProt P00533, C797S/L858R, cells depend on it); assay: Ba/F3 cell proliferation (Cell Titer Glo), EGFR L858R/C797S; conditions: 72 hours exposure, read-out: L858R/C797S (μM), inhibitory activity against EGFR mutants
How it was run: as §1

[3] = target: EGFR L858R/C775S Ba/F3 cells (Homo sapiens, UniProt P00533, C775S/L858R, cells depend on it); assay: Ba/F3 cell proliferation (Cell Titer Glo), EGFR L858R/C775S; conditions: 72 hours exposure, read-out: L858R/C775S (μM), inhibitory activity against EGFR mutants
Source text: The EGFR mutant L858R Ba/F3 cells have been previously described (Zhou, W., et al. Nature 462, 2009, 1070-1074). The EGFR C797S and C775S mutations were introduced via site directed mutagenesis using the Quick Change Site-Directed Mutagenesis kit into a vector containing EGFR L858R mutation (Stratagene; La Jolla, CA) according to the manufacturer's instructions. All constructs were confirmed by DNA sequencing. The constructs were then shuttled into the retroviral vector JP1540 by either using the Cre-recombination system (Agilent Technologies, Santa Clara, CA) or the In-fusion HD Cloning kit (Takara Bio USA, Inc.; Mountain view, CA). Ba/F3 cells were then infected with retrovirus per standard protocols, as described previously (Zhou, et al, Nature 2009). Stable clones were obtained by selection in puromycin (2 ug/ml). All BaF/3 mutant cells were maintained in RPMI 1640 (Cellgro; Mediatech Inc., Herndon, CA) supplemented with 10% FBS, 100 units/mL penicillin, 100 units/mL streptomycin.
Growth and inhibition of growth was assessed by the Cell Titer Glo assay (Promega, Madison, WI) and was performed according to the manufacturer's instructions. The Cell Titer Glo assay is a luminescence-based method used to determine the number of viable cells based on quantitation of the ATP present, which is directly proportional to the amount of metabolically active cells present. Ba/F3 cells of different EGFR genotypes were exposed to compounds for 72 hours and the number of cells used per experiment was determined empirically as has been previously established (Zhou, et al., Nature 2009). All experimental points were set up in triplicates in 384-well plates. […] The curves were fitted using a non-linear regression model with a sigmoidal dose response.
For inhibitory activity against EGFR mutants, the following designations are used: ≤0·25 μM=A, 0·25 μM˜0.5 μM=B, 0.5 μM˜2.5 μM=C, ≥2.5 μM=D.

EGFR L858R/C797S Ba/F3 cells, sequence (P00533 whole entry C797S/L858R): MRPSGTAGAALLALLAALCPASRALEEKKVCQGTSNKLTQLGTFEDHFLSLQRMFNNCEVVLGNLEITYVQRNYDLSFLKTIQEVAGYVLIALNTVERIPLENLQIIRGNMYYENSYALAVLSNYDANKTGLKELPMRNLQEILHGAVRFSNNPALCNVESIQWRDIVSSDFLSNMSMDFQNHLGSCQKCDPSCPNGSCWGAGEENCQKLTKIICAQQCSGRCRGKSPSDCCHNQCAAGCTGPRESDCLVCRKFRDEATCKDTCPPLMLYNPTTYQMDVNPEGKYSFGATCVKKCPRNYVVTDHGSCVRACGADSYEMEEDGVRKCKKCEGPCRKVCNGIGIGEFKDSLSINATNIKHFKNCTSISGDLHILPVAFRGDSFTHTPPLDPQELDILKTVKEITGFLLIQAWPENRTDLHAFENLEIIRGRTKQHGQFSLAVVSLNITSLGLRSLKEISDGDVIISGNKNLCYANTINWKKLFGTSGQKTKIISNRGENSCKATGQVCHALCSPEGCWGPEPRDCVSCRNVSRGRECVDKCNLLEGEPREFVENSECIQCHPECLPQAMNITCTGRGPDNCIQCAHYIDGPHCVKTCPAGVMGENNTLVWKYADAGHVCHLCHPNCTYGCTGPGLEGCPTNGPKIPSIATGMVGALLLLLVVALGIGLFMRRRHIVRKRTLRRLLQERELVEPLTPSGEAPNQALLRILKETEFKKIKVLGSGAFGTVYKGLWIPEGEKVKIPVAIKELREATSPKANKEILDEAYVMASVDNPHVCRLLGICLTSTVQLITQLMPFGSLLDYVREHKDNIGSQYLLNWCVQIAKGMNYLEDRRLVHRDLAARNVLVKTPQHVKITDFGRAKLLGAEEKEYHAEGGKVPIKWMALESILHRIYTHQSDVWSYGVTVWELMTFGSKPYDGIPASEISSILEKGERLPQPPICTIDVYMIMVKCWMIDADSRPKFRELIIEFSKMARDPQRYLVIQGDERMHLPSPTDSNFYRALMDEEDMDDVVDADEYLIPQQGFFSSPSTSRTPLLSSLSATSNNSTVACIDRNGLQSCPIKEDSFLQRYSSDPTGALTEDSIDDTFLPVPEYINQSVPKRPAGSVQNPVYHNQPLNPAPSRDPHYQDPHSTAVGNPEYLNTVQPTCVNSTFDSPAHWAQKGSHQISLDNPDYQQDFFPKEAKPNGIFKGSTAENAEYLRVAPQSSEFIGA
EGFR L858R/C775S Ba/F3 cells, sequence (P00533 whole entry C775S/L858R, the tested form may be a part): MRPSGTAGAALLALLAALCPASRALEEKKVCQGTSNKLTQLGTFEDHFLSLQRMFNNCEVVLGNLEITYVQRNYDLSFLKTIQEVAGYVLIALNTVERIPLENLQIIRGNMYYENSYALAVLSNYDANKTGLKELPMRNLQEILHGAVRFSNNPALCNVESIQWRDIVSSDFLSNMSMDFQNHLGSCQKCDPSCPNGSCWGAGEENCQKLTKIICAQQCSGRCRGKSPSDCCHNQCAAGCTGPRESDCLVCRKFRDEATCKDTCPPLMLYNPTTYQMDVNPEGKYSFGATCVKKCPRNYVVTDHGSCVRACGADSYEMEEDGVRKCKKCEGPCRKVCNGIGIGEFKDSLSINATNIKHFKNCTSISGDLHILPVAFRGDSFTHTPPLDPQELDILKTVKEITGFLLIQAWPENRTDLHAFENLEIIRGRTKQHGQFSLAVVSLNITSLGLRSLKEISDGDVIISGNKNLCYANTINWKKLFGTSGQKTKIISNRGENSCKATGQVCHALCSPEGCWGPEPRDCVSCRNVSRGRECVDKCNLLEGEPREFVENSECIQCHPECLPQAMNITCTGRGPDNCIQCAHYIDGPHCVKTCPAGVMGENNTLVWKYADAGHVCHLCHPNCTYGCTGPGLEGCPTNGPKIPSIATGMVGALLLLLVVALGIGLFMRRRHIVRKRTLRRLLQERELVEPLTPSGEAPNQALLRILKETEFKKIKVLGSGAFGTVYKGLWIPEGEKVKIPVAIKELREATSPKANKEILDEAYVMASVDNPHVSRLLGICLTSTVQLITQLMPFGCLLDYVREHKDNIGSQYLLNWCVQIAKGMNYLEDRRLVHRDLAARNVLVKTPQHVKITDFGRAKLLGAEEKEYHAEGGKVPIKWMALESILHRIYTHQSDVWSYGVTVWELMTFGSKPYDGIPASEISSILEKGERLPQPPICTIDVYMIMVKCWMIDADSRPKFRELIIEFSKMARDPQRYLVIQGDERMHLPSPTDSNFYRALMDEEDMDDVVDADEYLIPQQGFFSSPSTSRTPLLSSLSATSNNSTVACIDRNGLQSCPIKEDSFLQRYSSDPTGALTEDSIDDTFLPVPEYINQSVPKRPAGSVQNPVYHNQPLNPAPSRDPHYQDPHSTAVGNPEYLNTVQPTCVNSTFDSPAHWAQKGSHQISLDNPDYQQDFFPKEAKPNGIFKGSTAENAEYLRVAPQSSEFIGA
EGFR mutant L858R Ba/F3 cells, sequence (P00533 whole entry L858R): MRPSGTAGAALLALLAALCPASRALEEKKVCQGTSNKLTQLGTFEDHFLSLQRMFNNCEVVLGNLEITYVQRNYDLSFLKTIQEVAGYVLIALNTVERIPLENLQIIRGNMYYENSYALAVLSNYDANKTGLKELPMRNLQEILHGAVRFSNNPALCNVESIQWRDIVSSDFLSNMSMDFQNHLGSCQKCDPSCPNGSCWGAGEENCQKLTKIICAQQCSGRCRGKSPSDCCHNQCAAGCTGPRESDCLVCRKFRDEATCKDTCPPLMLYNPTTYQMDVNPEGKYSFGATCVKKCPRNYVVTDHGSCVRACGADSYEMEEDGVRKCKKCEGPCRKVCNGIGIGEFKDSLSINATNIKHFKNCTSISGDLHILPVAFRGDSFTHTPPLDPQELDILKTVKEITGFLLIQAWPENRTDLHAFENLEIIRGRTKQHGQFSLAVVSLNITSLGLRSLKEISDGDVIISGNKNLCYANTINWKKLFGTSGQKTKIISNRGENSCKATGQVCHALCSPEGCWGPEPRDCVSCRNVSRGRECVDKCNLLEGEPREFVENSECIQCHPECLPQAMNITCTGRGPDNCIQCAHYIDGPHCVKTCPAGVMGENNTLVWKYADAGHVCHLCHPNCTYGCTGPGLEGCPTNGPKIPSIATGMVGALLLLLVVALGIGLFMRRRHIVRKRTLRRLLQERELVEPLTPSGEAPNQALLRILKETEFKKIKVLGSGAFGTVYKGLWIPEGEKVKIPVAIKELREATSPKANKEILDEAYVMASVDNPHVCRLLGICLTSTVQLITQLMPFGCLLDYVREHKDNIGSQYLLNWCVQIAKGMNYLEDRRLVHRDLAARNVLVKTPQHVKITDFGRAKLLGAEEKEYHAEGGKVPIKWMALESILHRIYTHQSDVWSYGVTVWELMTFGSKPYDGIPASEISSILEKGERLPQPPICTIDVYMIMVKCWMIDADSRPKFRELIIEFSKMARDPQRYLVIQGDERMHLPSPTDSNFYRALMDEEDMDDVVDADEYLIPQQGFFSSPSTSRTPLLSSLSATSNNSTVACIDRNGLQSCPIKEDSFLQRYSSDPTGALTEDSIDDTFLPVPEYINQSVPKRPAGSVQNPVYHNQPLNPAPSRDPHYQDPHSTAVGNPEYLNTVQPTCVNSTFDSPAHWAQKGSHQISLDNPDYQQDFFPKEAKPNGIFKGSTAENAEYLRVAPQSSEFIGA

| SMILES | GI50 [1] [µM] | GI50 [2] [µM] | GI50 [3] [µM] |
| --- | --- | --- | --- |
| C=CC(=O)N1CCc2cccc(Oc3cc4cnc(Nc5ccc(N6CCN(C)CC6)cc5)nc4n(C)c3=O)c21 [Compound 003] | 0.5 to 2.5 | ≥ 2.5 | 0.5 to 2.5 |
| C=CC(=O)Nc1ccccc1Oc1cc2cnc(Nc3ccc(N4CCN(C)CC4)nc3)nc2n(C)c1=O [Compound 005] | 0.5 to 2.5 | ≥ 2.5 | ≥ 2.5 |
| C=CC(=O)Nc1ccccc1Oc1cc2cnc(Nc3ccc(N4CCN(C)CC4)cc3)nc2n(C2CCCN(C(C)=O)C2)c1=O (stereo not shown) [Compound 007, N-[2-[8-(1-acetyl-3-piperidyl)-2-[4-(4-methylpiperazin-1-yl)anilino]-7-oxo-pyrido[2,3-d]pyrimidin-6-yl]oxyphenyl]prop-2-enamide] | 0.25 to 0.5 | ≥ 2.5 | ≥ 2.5 |
| C=CC(=O)Nc1ccccc1Oc1cc2cnc(Nc3ccc(N4CCN(C)CC4)cc3)nc2n(-c2cccc(NC(C)=O)c2)c1=O [Compound 008] | 0.5 to 2.5 | ≥ 2.5 | ≥ 2.5 |
| C=CC(=O)N1CCN(c2cc3cnc(Nc4ccc(N5CCN(C)CC5)cc4)nc3n(C)c2=O)CC1 [Compound 009, 8-methyl-2-[4-(4-methylpiperazin-1-yl)anilino]-6-(4-prop-2-enoylpiperazin-1-yl)pyrido[2,3-d]pyrimidin-7-one] | ≥ 2.5 | ≥ 2.5 | ≥ 2.5 |

Further lines, results first:

| GI50 [1] [µM] | GI50 [2] [µM] | GI50 [3] [µM] | SMILES |
| --- | --- | --- | --- |
| 0.25 to 0.5 | 0.5 to 2.5 | 0.5 to 2.5 | C=CC(=O)Nc1ccccc1Cc1cc2cnc(Nc3ccc(N4CCN(C)CC4)cc3)nc2n(C)c1=O [Compound 001, N-[2-[[8-methyl-2-[4-(4-methylpiperazin-1-yl)anilino]-7-oxo-pyrido[2,3-d]pyrimidin-6-yl]methyl]phenyl]prop-2-enamide] |
| ≤ 0.25 | 0.25 to 0.5 | ≥ 2.5 | C=CC(=O)Nc1ccccc1Oc1cc2cnc(Nc3ccc(N4CCN(C)CC4)cc3)nc2n(C)c1=O [Compound 002, N-[2-[8-methyl-2-[4-(4-methylpiperazin-1-yl)anilino]-7-oxo-pyrido[2,3-d]pyrimidin-6-yl]oxyphenyl]prop-2-enamide] |
| 0.25 to 0.5 | 0.5 to 2.5 | ≥ 2.5 | C=CC(=O)Nc1ccccc1Oc1cc2cnc(Nc3ccc(N4CCN(C)CC4)cc3OC)nc2n(C)c1=O [Compound 004] |
| 0.25 to 0.5 | ≥ 2.5 | ≥ 2.5 | C#CC(=O)Nc1ccccc1Oc1cc2cnc(Nc3ccc(N4CCN(C)CC4)cc3)nc2n(C)c1=O [Compound 006, N-[2-[8-methyl-2-[4-(4-methylpiperazin-1-yl)anilino]-7-oxo-pyrido[2,3-d]pyrimidin-6-yl]oxyphenyl]prop-2-ynamide] |
| ≤ 0.25 | ≤ 0.25 | ≥ 2.5 | C=CC(=O)N1CCN(c2cc3cnc(Nc4ccc(N5CCN(C)CC5)cc4)nc3n(C)c2=O)c2ccccc21 [Compound 010, 8-methyl-2-[4-(4-methylpiperazin-1-yl)anilino]-6-(4-prop-2-enoyl-2,3-dihydroquinoxalin-1-yl)pyrido[2,3-d]pyrimidin-7-one] |
| ≤ 0.25 | ≤ 0.25 |  | C=CC(=O)N1CCN(c2cc3cnc(NC4CC4)nc3n(C3CCN(C)CC3)c2=O)c2cccc(C)c21 [Compound 105, 2-(cyclopropylamino)-8-(1-methyl-4-piperidyl)-6-(5-methyl-4-prop-2-enoyl-2,3-dihydroquinoxalin-1-yl)pyrido[2,3-d]pyrimidin-7-one] |
| ≤ 0.25 | 0.25 to 0.5 |  | C=CC(=O)N1CCN(c2cc3cnc(NC4CC4)nc3n(CC3CCOC3)c2=O)c2cccc(C)c21 (stereo not shown) [Compound 106, 2-(cyclopropylamino)-6-(5-methyl-4-prop-2-enoyl-2,3-dihydroquinoxalin-1-yl)-8-(tetrahydrofuran-3-ylmethyl)pyrido[2,3-d]pyrimidin-7-one] |
